How the values were obtained:
[1] = variable temperature CD, 50 μM protein, 20 mM sodium phosphate buffer, pH 7
[2] = molecular target: proteinase K (Parengyodontium album, UniProt P06873); experiment: HPLC-based proteolysis assay with proteinase K; type: in vitro ADME
Chain of proteinase K (P06873 106-384, species assumed): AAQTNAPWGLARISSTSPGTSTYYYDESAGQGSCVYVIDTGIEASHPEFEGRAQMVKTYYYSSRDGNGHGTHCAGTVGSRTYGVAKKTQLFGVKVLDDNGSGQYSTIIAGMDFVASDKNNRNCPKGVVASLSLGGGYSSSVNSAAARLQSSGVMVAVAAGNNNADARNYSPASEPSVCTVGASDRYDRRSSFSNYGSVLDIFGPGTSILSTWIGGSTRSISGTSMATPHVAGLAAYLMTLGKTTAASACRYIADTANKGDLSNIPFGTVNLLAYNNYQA

CC[C@H](C)[C@H](NC(=O)[C@H](Cc1c[nH]cn1)NC(=O)[C@H](CC(N)=O)NC(=O)[C@H](Cc1ccccc1)NC(=O)[C@H](Cc1ccc(O)cc1)NC(=O)[C@H](CCC(N)=O)NC(=O)[C@@H](NC(=O)[C@H](CCCNC(=N)N)NC(=O)CNC(=O)[C@H](CO)NC(=O)[C@H](CO)NC(=O)[C@H](CCCNC(=N)N)NC(=O)[C@H](CO)NC(=O)[C@H](CCSC)NC(=O)[C@H](CCCNC(=N)N)NC(=O)[C@H](CCCCN)NC(=O)[C@H](CCC(=O)O)NC(=O)[C@H](Cc1c[nH]c2ccccc12)NC(=O)CNC(=O)[C@@H]1CCCN1C(=O)[C@@H]1CCCN1C(=O)[C@H](CC(C)C)NC(=O)[C@@H](N)CCCCN)C(C)C)C(=O)N[C@H](C(=O)N[C@@H](CC(N)=O)C(=O)N[C@@H](C)C(=O)N[C@@H](CO)C(=O)N[C@@H](CCC(N)=O)C(=O)N[C@@H](Cc1ccccc1)C(=O)N[C@@H](CCC(=O)O)C(=O)N[C@@H](CCCNC(=N)N)C(=O)N1CCC[C@H]1C(=O)N[C@@H](CO)C(=O)NCC(=O)O)[C@@H](C)O [23Q]
Tm (melting temperature) [1]: 39.4 ±0.2 °C
k, apparent proteolysis rate constant [2]: 46.9 ±5.3 s^−1 × 10^3

CC[C@H](C)[C@H](NC(=O)[C@H](CCC(N)=O)NC(=O)[C@H](CC(N)=O)NC(=O)[C@H](Cc1ccccc1)NC(=O)[C@H](Cc1ccc(O)cc1)NC(=O)[C@H](Cc1ccc(O)cc1)NC(=O)[C@@H](NC(=O)[C@H](CCCNC(=N)N)NC(=O)CNC(=O)[C@H](CO)NC(=O)[C@H](CO)NC(=O)[C@H](CCCNC(=N)N)NC(=O)[C@H](CO)NC(=O)[C@H](CCSC)NC(=O)[C@H](CCCNC(=N)N)NC(=O)[C@H](CCCCN)NC(=O)[C@H](CCC(=O)O)NC(=O)[C@H](Cc1c[nH]c2ccccc12)NC(=O)CNC(=O)[C@@H]1CCCN1C(=O)[C@@H]1CCCN1C(=O)[C@H](CC(C)C)NC(=O)[C@@H](N)CCCCN)C(C)C)C(=O)N[C@H](C(=O)N[C@@H](CC(N)=O)C(=O)N[C@@H](C)C(=O)N[C@@H](CO)C(=O)N[C@@H](CCC(N)=O)C(=O)N[C@@H](Cc1ccccc1)C(=O)N[C@@H](CCC(=O)O)C(=O)N[C@@H](CCCNC(=N)N)C(=O)N1CCC[C@H]1C(=O)N[C@@H](CO)C(=O)NCC(=O)O)[C@@H](C)O [27Q]
Tm (melting temperature) [1]: 56.4 ±0.2 °C
k, apparent proteolysis rate constant [2]: 10.8 ±0.2 s^−1 × 10^3

CC[C@H](C)[C@H](NC(=O)[C@H](Cc1c[nH]cn1)NC(=O)[C@H](CC(N)=O)NC(=O)[C@H](Cc1ccccc1)NC(=O)[C@H](Cc1ccc(O)cc1)NC(=O)[C@H](Cc1ccc(O)cc1)NC(=O)[C@@H](NC(=O)[C@H](CCCNC(=N)N)NC(=O)CNC(=O)[C@H](CO)NC(=O)[C@H](CCC(N)=O)NC(=O)[C@H](CCCNC(=N)N)NC(=O)[C@H](CO)NC(=O)[C@H](CCSC)NC(=O)[C@H](CCCNC(=N)N)NC(=O)[C@H](CCCCN)NC(=O)[C@H](CCC(=O)O)NC(=O)[C@H](Cc1c[nH]c2ccccc12)NC(=O)CNC(=O)[C@@H]1CCCN1C(=O)[C@@H]1CCCN1C(=O)[C@H](CC(C)C)NC(=O)[C@@H](N)CCCCN)C(C)C)C(=O)N[C@H](C(=O)N[C@@H](CC(N)=O)C(=O)N[C@@H](C)C(=O)N[C@@H](CO)C(=O)N[C@@H](CCC(N)=O)C(=O)N[C@@H](Cc1ccccc1)C(=O)N[C@@H](CCC(=O)O)C(=O)N[C@@H](CCCNC(=N)N)C(=O)N1CCC[C@H]1C(=O)N[C@@H](CO)C(=O)NCC(=O)O)[C@@H](C)O [18Q]
Tm (melting temperature) [1]: 58.5 ±0.2 °C
k, apparent proteolysis rate constant [2]: 7.8 ±0.4 s^−1 × 10^3

CC[C@H](C)[C@H](NC(=O)[C@H](Cc1c[nH]cn1)NC(=O)[C@H](CC(N)=O)NC(=O)[C@H](Cc1ccccc1)NC(=O)[C@H](Cc1ccc(O)cc1)NC(=O)[C@H](Cc1ccc(O)cc1)NC(=O)[C@@H](NC(=O)[C@H](CCCNC(=N)N)NC(=O)CNC(=O)[C@H](CO)NC(=O)[C@H](CO)NC(=O)[C@H](CCCNC(=N)N)NC(=O)[C@H](CO)NC(=O)[C@H](CCSC)NC(=O)[C@H](CCCNC(=N)N)NC(=O)[C@H](CCCCN)NC(=O)[C@H](CCC(=O)O)NC(=O)[C@H](Cc1c[nH]c2ccccc12)NC(=O)CNC(=O)[C@@H]1CCCN1C(=O)[C@@H]1CCCN1C(=O)[C@H](CC(C)C)NC(=O)[C@@H](N)CCCCN)C(C)C)C(=O)N[C@@H](CCC(N)=O)C(=O)N[C@@H](CC(N)=O)C(=O)N[C@@H](C)C(=O)N[C@@H](CO)C(=O)N[C@@H](CCC(N)=O)C(=O)N[C@@H](Cc1ccccc1)C(=O)N[C@@H](CCC(=O)O)C(=O)N[C@@H](CCCNC(=N)N)C(=O)N1CCC[C@H]1C(=O)N[C@@H](CO)C(=O)NCC(=O)O [29Q]
Tm (melting temperature) [1]: 45.3 ±0.5 °C
k, apparent proteolysis rate constant [2]: 47.2 ±2.6 s^−1 × 10^3

Source: publication PMC6330093 (Bioconjugate chemistry, 2017)
